PubChem BioAssay (NCI)
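Exposure lasted 48 hours, with cells grown in 96-well plates and compounds tested at five concentrations. TGI: total growth inhibition.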

Tests used:
Experiment in all cases: NCI tumour cell line growth inhibition, 48 h
LOX IMVI melanoma = system: LOX IMVI melanoma
NCI-H226 lung = system: NCI-H226 lung
CCRF-CEM leukemia = system: CCRF-CEM leukemia
SNB-75 CNS = system: SNB-75 CNS
PC-3 prostate = system: PC-3 prostate
SN12C renal = system: SN12C renal
SR leukemia = system: SR leukemia
KM12 colon = system: KM12 colon
SW-620 colon = system: SW-620 colon
EKVX NSCLC = system: EKVX NSCLC
RXF 393 renal = system: RXF 393 renal
MALME-3M melanoma = system: MALME-3M melanoma
HOP-92 NSCLC = system: HOP-92 NSCLC
HCT-116 colon = system: HCT-116 colon
NCI-H23 lung = system: NCI-H23 lung
CAKI-1 renal = system: CAKI-1 renal
BT-549 breast = system: BT-549 breast
OVCAR-8 ovarian = system: OVCAR-8 ovarian
DU-145 prostate = system: DU-145 prostate
OVCAR-4 ovarian = system: OVCAR-4 ovarian
MDA-MB-231 breast = system: MDA-MB-231 breast
HL-60(TB) leukemia = system: HL-60(TB) leukemia
M14 melanoma = system: M14 melanoma
T-47D breast = system: T-47D breast
HT29 colon = system: HT29 colon
TK-10 renal = system: TK-10 renal
ACHN renal = system: ACHN renal
IGROV1 ovarian = system: IGROV1 ovarian
NCI/ADR-RES ovarian = system: NCI/ADR-RES ovarian
A549 NSCLC = system: A549 NSCLC
RPMI-8226 leukemia = system: RPMI-8226 leukemia
SNB-19 CNS = system: SNB-19 CNS
NCI-H522 lung = system: NCI-H522 lung
HOP-62 NSCLC = system: HOP-62 NSCLC
SK-MEL-28 melanoma = system: SK-MEL-28 melanoma
OVCAR-3 ovarian = system: OVCAR-3 ovarian
NCI-H460 lung = system: NCI-H460 lung
MDA-N = system: MDA-N
COLO 205 colon = system: COLO 205 colon
HCT-15 colon = system: HCT-15 colon
HS 578T breast = system: HS 578T breast
UO-31 renal = system: UO-31 renal
SK-OV-3 ovarian = system: SK-OV-3 ovarian
OVCAR-5 ovarian = system: OVCAR-5 ovarian
UACC-257 melanoma = system: UACC-257 melanoma
MCF7 breast = system: MCF7 breast
SF-268 CNS = system: SF-268 CNS
U251 CNS = system: U251 CNS
UACC-62 melanoma = system: UACC-62 melanoma
SK-MEL-2 melanoma = system: SK-MEL-2 melanoma
MOLT-4 leukemia = system: MOLT-4 leukemia
MDA-MB-435 = system: MDA-MB-435
786-0 renal = system: 786-0 renal
SF-295 CNS = system: SF-295 CNS
SK-MEL-5 melanoma = system: SK-MEL-5 melanoma
HCC-2998 colon = system: HCC-2998 colon
K-562 leukemia = system: K-562 leukemia
SF-539 CNS = system: SF-539 CNS

Compound: CCOC(=O)C1(C(=O)OCC)[C@@H](c2ccccc2)C2=NO[C@@H]3CCC[C@H]1[C@H]23
- TGI (LOX IMVI melanoma): > 100 µM
- TGI (NCI-H226 lung): > 100 µM
- TGI (CCRF-CEM leukemia): 78.7 µM
- TGI (SNB-75 CNS): > 100 µM
- TGI (PC-3 prostate): > 100 µM
- TGI (SN12C renal): > 100 µM
- TGI (SR leukemia): > 100 µM
- TGI (KM12 colon): > 100 µM
- TGI (SW-620 colon): > 100 µM
- TGI (EKVX NSCLC): > 100 µM
- TGI (RXF 393 renal): > 100 µM
- TGI (MALME-3M melanoma): > 100 µM
- TGI (HOP-92 NSCLC): > 100 µM
- TGI (HCT-116 colon): > 100 µM
- TGI (NCI-H23 lung): > 100 µM
- TGI (CAKI-1 renal): > 100 µM
- TGI (BT-549 breast): > 100 µM
- TGI (OVCAR-8 ovarian): > 100 µM
- TGI (DU-145 prostate): > 100 µM
- TGI (OVCAR-4 ovarian): > 100 µM
- TGI (MDA-MB-231 breast): > 100 µM
- TGI (HL-60(TB) leukemia): > 100 µM
- TGI (M14 melanoma): > 100 µM
- TGI (T-47D breast): > 100 µM
- TGI (HT29 colon): > 100 µM
- TGI (TK-10 renal): > 100 µM
- TGI (ACHN renal): > 100 µM
- TGI (IGROV1 ovarian): > 100 µM
- TGI (NCI/ADR-RES ovarian): > 100 µM
- TGI (A549 NSCLC): > 100 µM
- TGI (RPMI-8226 leukemia): > 100 µM
- TGI (SNB-19 CNS): > 100 µM
- TGI (NCI-H522 lung): > 100 µM
- TGI (HOP-62 NSCLC): > 100 µM
- TGI (SK-MEL-28 melanoma): > 100 µM
- TGI (OVCAR-3 ovarian): > 100 µM
- TGI (NCI-H460 lung): > 100 µM
- TGI (MDA-N): 64.6 µM
- TGI (COLO 205 colon): > 100 µM
- TGI (HCT-15 colon): > 100 µM
- TGI (HS 578T breast): > 100 µM
- TGI (UO-31 renal): > 100 µM
- TGI (SK-OV-3 ovarian): > 100 µM
- TGI (OVCAR-5 ovarian): > 100 µM
- TGI (UACC-257 melanoma): 79.8 µM
- TGI (MCF7 breast): > 100 µM
- TGI (SF-268 CNS): > 100 µM
- TGI (U251 CNS): > 100 µM
- TGI (UACC-62 melanoma): > 100 µM
- TGI (SK-MEL-2 melanoma): > 100 µM
- TGI (MOLT-4 leukemia): > 100 µM
- TGI (MDA-MB-435): 53.6 µM
- TGI (786-0 renal): > 100 µM
- TGI (SF-295 CNS): > 100 µM
- TGI (SK-MEL-5 melanoma): > 100 µM
- TGI (HCC-2998 colon): 50.2 µM
- TGI (K-562 leukemia): > 100 µM
- TGI (SF-539 CNS): > 100 µM
